Laboratory results as given in ChEMBL document CHEMBL6134912, “Novel Piperidine Substituted Pyrazolopyrimidine Derivatives as SGK1 Inhibitors for Treating Cardiovascular Diseases” (ACS Med Chem Lett, 2025).

Biological target: T1, Serine/threonine-protein kinase Sgk1 (Homo sapiens, UniProt O00141)
T1 sequence (O00141 whole entry): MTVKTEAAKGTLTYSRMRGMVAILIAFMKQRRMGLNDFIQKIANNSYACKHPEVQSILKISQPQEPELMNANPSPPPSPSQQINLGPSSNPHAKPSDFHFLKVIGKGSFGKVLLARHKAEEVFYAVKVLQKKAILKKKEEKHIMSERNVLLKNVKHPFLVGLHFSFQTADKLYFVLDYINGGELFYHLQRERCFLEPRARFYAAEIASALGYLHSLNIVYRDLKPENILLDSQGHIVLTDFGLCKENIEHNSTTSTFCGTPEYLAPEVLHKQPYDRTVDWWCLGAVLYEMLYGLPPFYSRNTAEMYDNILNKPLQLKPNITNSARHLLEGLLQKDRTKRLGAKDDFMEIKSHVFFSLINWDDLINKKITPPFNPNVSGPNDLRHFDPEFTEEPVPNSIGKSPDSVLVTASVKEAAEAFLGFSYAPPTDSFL
Experiment: Inhibition of GST-tagged human SGK1 using fluorescein labelled ATP-competitive probe by homogeneous time-resolved fluorescence (HTRF) binding assay

Row | Compound | IC50
1 | Cc1nc(O[C@H]2CC[C@@H](NC(C)CO)CC2)c(C(=O)N[C@@H]2CCCN(c3nn(-c4ccc(C(N)=O)c(F)c4)c4ncnc(N)c34)C2)s1 (stereo partly specified) | 5 nM
2 | Cc1nc(O[C@H]2CC[C@@H](N3CCC3)CC2)c(C(=O)N[C@@H]2CCCN(c3nn(C4=CC(=O)OC4)c4ncnc(N)c34)C2)s1 | 5 nM
3 | COc1cc(C(=O)N[C@@H]2CCCN(c3nn(-c4ccc(S(C)(=O)=O)cc4)c4ncnc(N)c34)C2)ccn1 | 5 nM
4 | Cc1nc(O[C@H]2CC[C@@H](N(C)C)CC2)c(C(=O)N[C@@H]2CCCN(c3nn(-c4ccc(C(N)=O)c(F)c4)c4ncnc(N)c34)C2)s1 | 4 nM

Further lines, results first:

Row | IC50 | Compound
5 | 4 nM | Cc1nc(O[C@H]2CC[C@@H](NC3CCC3)CC2)c(C(=O)N[C@@H]2CCCN(c3nn(-c4ccc(C(N)=O)c(F)c4)c4ncnc(N)c34)C2)s1
6 | 3 nM | CCC(CC)N[C@H]1CC[C@@H](Oc2nc(C)sc2C(=O)N[C@@H]2CCCN(c3nn(-c4ccc(C(N)=O)c(F)c4)c4ncnc(N)c34)C2)CC1
